According to PubChem BioAssay (NCI):
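Test compounds were applied to cells in 96-well plates for 48 hours at 5 doses. TGI: concentration producing complete growth inhibition.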

Experiments:
Test in all cases: NCI tumour cell line growth inhibition, 48 h
[1] = test system: M19-MEL melanoma
[2] = test system: LXFL 529 NSCLC
[3] = test system: P388/ADR leukemia
[4] = test system: P388 leukemia
[5] = test system: SN12K1 renal
[6] = test system: HOP-18 NSCLC

| Structure (SMILES) | TGI [1] [µM] | TGI [2] [µM] | TGI [3] [µM] | TGI [4] [µM] | TGI [5] [µM] | TGI [6] [µM] |
| --- | --- | --- | --- | --- | --- | --- |
| O=c1[nH]c2c(nc1NC13CC4CC(CC(C4)C1)C3)c(=O)oc1ccccc12 | > 100 | > 100 |  |  |  |  |
| CC(=O)N(C)c1ccc(Nc2cc(C)[nH]c3ccc4ncnc4c23)cc1 | 20.1 |  | 228 | 49.2 | 16.6 | 53.1 |
| CC(C)(C)[Si](OC1CC(n2cnc3c(N)ncnc32)OC1CO)(c1ccccc1)c1ccccc1 (configuration not stated) | 42.9 | > 100 |  |  |  | > 100 |
| CCN(CC)CC1CCCCCCCCCCC1=O (configuration not stated) | > 100 | > 100 |  |  |  |  |
| COc1cc2cc3c4c(cc(OC)c(OC)c4c2cc1OC)CCN3C(=O)OCCN1CCNCC1 | 19.6 | 28.3 |  |  |  | 30.7 |
| O=C1C(Cl)N(c2ccc(Cl)cc2)C1c1c[nH]c2ccccc12 (configuration not stated) | 98.4 | 30.2 |  |  |  |  |
| Cc1cc(N)c(C)c2c1[nH]c1ccc(O)cc12 | > 100 |  |  |  |  | > 100 |
| COc1ccc(C2COc3cc(OC(C)=O)c(OC(C)=O)cc3C2)cc1 (configuration not stated) | 37.7 |  | 17.7 | 33.5 | 35.7 | 19.3 |
| CCOC(=O)C1(C#N)C(c2ccccc2)CC(O)(c2ccc(OC)cc2)C(C(=O)c2ccc(OC)cc2)C1c1ccccc1 (configuration not stated) | > 100 | > 100 |  |  |  | > 100 |
